US20090253709A1 (NATIONAL DEFENSE MEDICAL CENTER, priority 2008, published 2009)
Like-named read-outs stand apart in the source and are kept apart here.

Assays:
hTERT expression = test: SEAP assay in hTERT-BJ1-PTERT(3.4)-SEAP cells; assay type: cell-based; conditions: Homo sapiens, read-out: SEAP (Inhibition μM ± SD)
Method: A total of 2×10^3 hTERT-BJ1-PTERT(3.4)-SEAP cells were seeded in the 96-well cell culture plate, and incubated with DMEM (GIBCO®)/glucose mixture and Medium 199 (GIBCO®)/10% FBS/1 mM sodium pyruvate (GIBCO®)/4 mM L-glutamine (GIBCO®) mixture at a ratio of 4:1 at 37° C. for 24 hours. When the cells were attached in the bottom of the well, the seriously-diluted compounds with different concentrations ([…]) were treated with the cells for 48 hours, and the PTERT(3.4)-SEAP cells without drug treatment were being the control. After 48 hours of drug treatment, the cultured medium were collected for performing the analysis of SEAP activity. The cells were washed with 1×PBS once immediately, and the MTT assay was performed to compare the compounds with the relative toxicity or the influence to the proliferation and activity.
The cellular medium after the cellular incubation was transferred into the eppondorf tube, and the activity of endogeneous alkaline phosphatase was inactivated at 65° C. for 10 minutes. After centrification, the mixture was obtained by mixing 50 μl of the supernatant with the equal volume of the SEAP buffer. The mixture and the substrate (120 mM of p-nitrophenylphosphate) were preheated at 37° C. for 10 minutes respectively, and the mixture and the substrate were mixed at a ratio of 1:10 and reacted at 37° C. The absorbance of visible light at 405 nm was determined at the appropriate time intervals, and the enzymatic activity of SEAP was represented by the speed of the increasing absorbance at 405 nm.

MTT assay in BJ1 cells = assay type: cell-based; conditions: human, hTERT-BJ1-PTERT(3.4)-SEAP cells, BJ1, read-out: MTT (Inhibition μM ± SD); for viability at 48 h, 1 µM: compound concentration 1 μM; for viability at 48 h, 10 µM: compound concentration 10 μM; for viability at 48 h, 100 µM: compound concentration 100 μM
Method: A total of 2×10^3 […] cells were seeded in the 96-well cell culture plate, and incubated with DMEM (GIBCO®)/glucose mixture and Medium 199 (GIBCO®)/10% FBS/1 mM sodium pyruvate (GIBCO®)/4 mM L-glutamine (GIBCO®) mixture at a ratio of 4:1 at 37° C. for 24 hours. […] After 48 hours of drug treatment, the cultured medium were collected for performing the analysis of SEAP activity. The cells were washed with 1×PBS once immediately, and the MTT assay was performed to compare the compounds with the relative toxicity or the influence to the proliferation and activity. Mitochondria is the place for cellular respiration, and there are many reductive reactions catalyzed by dehydrogenases. MTT is a water-soluble yellow compound, and the […] will be formed after reduction. This crystal can be dissolved in the organic solvent, and has high absorbance at the wavelength of 570 nm. The higher cellular activity or more cell numbers, the more generated crystal violets. Therefore, the cellular activity and cell number can be obtained by the MTT assay. MTT solution was prepared by dissolving MTT powder in PBS solution to achieve 5 mg/ml, filtrated and stored at 4° C. Lysis buffer contained 20% (w/v) of SDS in 50% of N,N-dimethylformamide (DMF, Riedel-deHaën). After the cells were incubated in the 96-well culture plate, the original medium was discarded, 100 μl of the fresh serum-free medium per well and 25 μl of MTT solution per well were added in respectively, and the cells were further incubated in the CO2 incubator at 37° C. for 4 hours. Then, 100 μl of lysis buffer per well was added in and incubated overnight in the CO2 incubator at 37° C. The absorbance at 570 nm was determined by the ELISA reader.

[1] = BJ1, compound concentration 1 μM
[2] = BJ1, compound concentration 10 μM
[3] = BJ1, compound concentration 100 μM

Compound	melting point	activity at 1 µM (hTERT expression; [1])	activity at 10 µM (hTERT expression; [2])	activity at 100 µM (hTERT expression; [3])	viability at 48 h, 1 µM (MTT assay in BJ1 cells)	viability at 48 h, 10 µM (MTT assay in BJ1 cells)	viability at 48 h, 100 µM (MTT assay in BJ1 cells)	activity at 1 µM (hTERT expression)	activity at 10 µM (hTERT expression)	activity at 100 µM (hTERT expression)
CN1CCN(CC(=O)Nc2ccc3c(c2)C(=O)c2cc(NC(=O)CN4CCN(C)CC4)ccc2C3=O)CC1 [Compound 11, 2,7-Bis[2-(N-methylpiperazino)acetamido]anthraquinone]	173 °C	61 ± 21%	68 ± 21%	97 ± 30%	86 ± 1%	69 ± 1%	47 ± 3%			
Nc1ccc2c(c1)C(=O)c1cc(N)ccc1C2=O [Compound 2, 2,7-Diaminoanthraquinone]	342 °C				95 ± 2%	83 ± 1%	80 ± 2%			
O=C1c2ccc(NC(=O)C3CCCCC3)cc2C(=O)c2cc(NC(=O)C3CCCCC3)ccc21 [Compound 34, 2,7-Bis(cyclohexanecarbonamido)anthraquinone]	269 °C	14 ± 67%	14 ± 53%	22 ± 7%	87 ± 2%	76 ± 3%	64 ± 2%			
O=C1c2ccc([N+](=O)[O-])cc2C(=O)c2cc([N+](=O)[O-])ccc21 [Compound 1, 2,7-dinitroanthraquinone]	284 °C	55 ± 21%	60 ± 35%	65 ± 23%	91 ± 2%	91 ± 2%	86 ± 3%			
O=C(CCN1CCCC1)Nc1ccc2c(c1)C(=O)c1cc(NC(=O)CCN3CCCC3)ccc1C2=O [Compound 18, 2,7-Bis[3-(pyrrolidino)propionamido]anthraquinone]			67 ± 16%	109 ± 18%	82 ± 4%	68%	39%			
CCNCCC(=O)Nc1ccc2c(c1)C(=O)c1cc(NC(=O)CCNCC)ccc1C2=O [Compound 22, 2,7-Bis[3-(ethylamino)propionamido]anthraquinone]	181 °C				82 ± 2%	73 ± 3%	42 ± 1%	211 ± 38%	217 ± 133%	97 ± 87%
O=C(CCl)Nc1ccc2c(c1)C(=O)c1cc(NC(=O)CCl)ccc1C2=O [Compound 3, 2,7-bis(chloroacetamido)anthraquinone]	286 °C				105 ± 2%	89 ± 3%	88 ± 2%		69 ± 34%	135 ± 21%
CCCNCCC(=O)Nc1ccc2c(c1)C(=O)c1cc(NC(=O)CCNCCC)ccc1C2=O [Compound 21, 2,7-Bis[3-(propylamino)propionamido]anthraquinone]			133 ± 48%	217 ± 40%	75 ± 1%	65 ± 2%	38 ± 2%			

Second part, led by results:

melting point	Compound	activity at 1 µM (hTERT expression; [1])	activity at 10 µM (hTERT expression; [2])	activity at 100 µM (hTERT expression; [3])	viability at 48 h, 1 µM (MTT assay in BJ1 cells)	viability at 48 h, 10 µM (MTT assay in BJ1 cells)	viability at 48 h, 100 µM (MTT assay in BJ1 cells)	activity at 1 µM (hTERT expression)	activity at 10 µM (hTERT expression)	activity at 100 µM (hTERT expression)
146 °C	CC(C)CNCC(=O)Nc1ccc2c(c1)C(=O)c1cc(NC(=O)CNCC(C)C)ccc1C2=O [Compound 14, 2,7-Bis[2-(isobutylamino)acetamido]anthraquinone]	83 ± 5%	44 ± 2%	40 ± 3%	107 ± 3%	37%	39%			
284 °C	CN1CCN(CCC(=O)Nc2ccc3c(c2)C(=O)c2cc(NC(=O)CCN4CCN(C)CC4)ccc2C3=O)CC1 [Compound 23, 2,7-Bis[3-(N-methylpiperazino)propionamido]anthraquinone]		138 ± 115%	232 ± 66%	95 ± 2%	80 ± 2%	61 ± 1%			
143 °C	CCCNCC(=O)Nc1ccc2c(c1)C(=O)c1cc(NC(=O)CNCCC)ccc1C2=O [Compound 9, 2,7-Bis[2-(propylamino)acetamido]anthraquinone]				96 ± 3%	44%	42 ± 1%			
173 °C	O=C(CN1CCNCC1)Nc1ccc2c(c1)C(=O)c1cc(NC(=O)CN3CCNCC3)ccc1C2=O [Compound 12, 2,7-Bis[2-(piperazino)acetamido]anthraquinone]				88 ± 2%	85 ± 15%	76 ± 2%			
241 °C	CCN(CC)CC(=O)Nc1ccc2c(c1)C(=O)c1cc(NC(=O)CN(CC)CC)ccc1C2=O [Compound 4, 2,7-Bis[2-(diethylamino)acetamido]anthraquinone]	26 ± 4%	131 ± 57%	116 ± 34%	116 ± 4%	67 ± 2%	50 ± 1%			
234 °C	O=C(CCCCl)Nc1ccc2c(c1)C(=O)c1cc(NC(=O)CCCCl)ccc1C2=O [Compound 25, 2,7-Bis(4-chlorobutyramido)anthraquinone]	13 ± 58%	42 ± 45%	75 ± 16%	72 ± 3%	62 ± 2%	58 ± 3%			
291 °C	CCC(=O)Nc1ccc2c(c1)C(=O)c1cc(NC(=O)CC)ccc1C2=O [Compound 27, 2,7-Bis(propionamido)anthraquinone]	78 ± 10%	64 ± 8%	51 ± 8%	77 ± 2%	57 ± 2%	48 ± 2%			
281 °C	O=C(CCCl)Nc1ccc2c(c1)C(=O)c1cc(NC(=O)CCCl)ccc1C2=O [Compound 15, 2,7-Bis(3-chloropropionamido)anthraquinone]				77 ± 2%	65 ± 1%	39 ± 1%			
218 °C	O=C(CCN1CCNCC1)Nc1ccc2c(c1)C(=O)c1cc(NC(=O)CCN3CCNCC3)ccc1C2=O [Compound 24, 2,7-Bis[3-(piperazino)propionamido]anthraquinone]	163 ± 22%	118 ± 26%	131 ± 29%	96 ± 2%	100 ± 3%	88 ± 4%			
125 °C	CCCCNCC(=O)Nc1ccc2c(c1)C(=O)c1cc(NC(=O)CNCCCC)ccc1C2=O [Compound 5, 2,7-Bis[2-(butylamino)acetamido]anthraquinone]	27 ± 18%	24 ± 24%	80 ± 14%	103 ± 1%	41 ± 1%	43 ± 1%			
266 °C	O=C(CCN1CCCCC1)Nc1ccc2c(c1)C(=O)c1cc(NC(=O)CCN3CCCCC3)ccc1C2=O [Compound 19, 2,7-Bis[3-(piperidino)propionamido]anthraquinone]	186 ± 47%	226 ± 51%	234 ± 20%	92 ± 6%	54 ± 2%	41 ± 2%			
268 °C	O=C(CCc1ccccc1)Nc1ccc2c(c1)C(=O)c1cc(NC(=O)CCc3ccccc3)ccc1C2=O [Compound 31, 2,7-Bis(phenylpropionamido)anthraquinone]	74 ± 29%	92 ± 45%	43 ± 75%	89 ± 2%	44%	44 ± 1%			
